Test results published in the supplement of paper PMC11061612.

Assays:
Test in all cases: combination Emax (second highest fraction inhibited in the dose matrix, 72 h); higher = more inhibition; extreme values may be limits of the assay
[1] = system: BICR22 (Oral Cavity Carcinoma)
In short: (§1)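 Bliss excess equals the observed combination effect minus the expected value EA + EB − EA·EB, where EA and EB are the effects of each agent alone. Combination Emax is the second-highest inhibition within the matrix. Inhibition was scaled from CellTiter-Glo 2.0 luminescence, with 0 set by vehicle wells and 1 by blank wells, after 72 hours of two-drug dosing of cells plated in 1536-well plates.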

[2] = system: COR-L311 (Small Cell Lung Carcinoma)
In short: as §1

[3] = system: VCaP (Prostate Carcinoma)
In short: as §1

ARH-77 (Non-Cancerous) = system: ARH-77 (Non-Cancerous)
In short: as §1

8-MG-BA (Glioblastoma) = system: 8-MG-BA (Glioblastoma)
In short: as §1

IGR-37 (Melanoma) = system: IGR-37 (Melanoma)
In short: as §1

[4] = system: SISO (Cervical Carcinoma)
In short: as §1

[5] = system: JSC-1 (B-Cell Non-Hodgkin's Lymphoma)
In short: as §1

[6] = system: CAPAN-2 (Pancreatic Carcinoma)
In short: as §1

NY (Osteosarcoma) = system: NY (Osteosarcoma)
In short: as §1

[7] = system: TT (Thyroid Gland Carcinoma)
In short: as §1

A498 (Kidney Carcinoma) = system: A498 (Kidney Carcinoma)
In short: as §1

[8] = system: A3-KAW (B-Cell Non-Hodgkin's Lymphoma)
In short: as §1

[9] = system: OS-RC-2 (Kidney Carcinoma)
In short: as §1

[10] = system: A549 (Lung Adenocarcinoma)
In short: as §1

[11] = system: ONS-76 (Other Solid Carcinomas)
In short: as §1

Hs-445 (Non-Cancerous) = system: Hs-445 (Non-Cancerous)
In short: as §1

CAS-1 (Glioblastoma) = system: CAS-1 (Glioblastoma)
In short: as §1

[12] = system: PANC-10-05 (Pancreatic Carcinoma)
In short: as §1

[13] = system: CAL-29 (Bladder Carcinoma)
In short: as §1

Which results are given for `CCN(CCO)CCCOc1ccc2c(Nc3cc(CC(=O)Nc4cccc(F)c4)[nH]n3)ncnc2c1` [AZD2811] + C[C@@H]1COCCN1C2=NC(=NC(=C2)C3(CC3)[S@](=N)(=O)C)C4=C5C=CNC5=NC=C4 [AZD6738] (first compound max 1 µM, 7x7, partner max 10 µM)?
combination Emax [1]: 0.729; combination Emax [2]: 0.577; combination Emax [3]: 0.289; combination Emax (ARH-77 (Non-Cancerous)): 0.941; combination Emax (8-MG-BA (Glioblastoma)): 0.785; combination Emax (IGR-37 (Melanoma)): 0.711; combination Emax [4]: 0.551; combination Emax [5]: 0.744; combination Emax [6]: 0.29; combination Emax (NY (Osteosarcoma)): 0.619; combination Emax [7]: 0.475; combination Emax (A498 (Kidney Carcinoma)): 0.647; combination Emax [8]: 0.968; combination Emax [9]: 0.429; combination Emax [10]: 0.775; combination Emax [11]: 0.908; combination Emax (Hs-445 (Non-Cancerous)): 0.832; combination Emax (CAS-1 (Glioblastoma)): 0.544; combination Emax [12]: 0.389; combination Emax [13]: 0.67

`CCN(CCO)CCCOc1ccc2c(Nc3cc(CC(=O)Nc4cccc(F)c4)[nH]n3)ncnc2c1` [AZD2811] + O=C(c1cc(Cc2n[nH]c(=O)c3ccccc23)ccc1F)N1CCN(C(=O)C2CC2)CC1 [Olaparib] (first compound max 1 µM, 7x7, partner max 10 µM) was tested. Which “combination Emax” value [1] did it give?
The value was 0.362.

And the “combination Emax” value [2]?
Its value is 0.673.

And the “combination Emax” value [3]?
Its value is 0.224.

And the “combination Emax” value (ARH-77 (Non-Cancerous))?
Its value is 0.474.

What about the “combination Emax” value (8-MG-BA (Glioblastoma)) of the same compound?
Its value is 0.52.

And the “combination Emax” value (IGR-37 (Melanoma))?
The value was 0.0609.

What about the “combination Emax” value [4] of the same compound?
Its value is 0.454.

And the “combination Emax” value [5]?
Its value is 0.213.

What about the “combination Emax” value [6] of the same compound?
The value was 0.184.

What about the “combination Emax” value (NY (Osteosarcoma)) of the same compound?
Its value is 0.169.

And the “combination Emax” value [7]?
The value was 0.458.

What about the “combination Emax” value (A498 (Kidney Carcinoma)) of the same compound?
The value was 0.241.

What about the “combination Emax” value [8] of the same compound?
Its value is 0.688.

And the “combination Emax” value [9]?
The value was 0.178.

And the “combination Emax” value [10]?
Its value is 0.58.

What about the “combination Emax” value [11] of the same compound?
Its value is 0.398.

And the “combination Emax” value (Hs-445 (Non-Cancerous))?
Its value is 0.426.

What about the “combination Emax” value (CAS-1 (Glioblastoma)) of the same compound?
The value was 0.255.

And the “combination Emax” value [12]?
Its value is 0.181.

What about the “combination Emax” value [13] of the same compound?
Its value is 0.288.

With `CN(CCO)CC[C@H](CSc1ccccc1)Nc1ccc(S(=O)(=O)NC(=O)c2ccc(N3CCC([C@@H](O)c4ccccc4-c4ccc(Cl)cc4)CC3)cc2)cc1S(=O)(=O)C(F)(F)F` [AZD4320] + C1CN(CCC1(C(=O)N[C@@H](CCO)C2=CC=C(C=C2)Cl)N)C3=NC=NC4=C3C=CN4 [Capivasertib] (first compound max 1 µM, 7x7, partner max 3 µM) as the compound, how does the “combination Emax” value [1] read?
The value was 0.684.

What about the “combination Emax” value [2] of the same compound?
Its value is 1.

And the “combination Emax” value [3]?
Its value is 0.404.

What about the “combination Emax” value (ARH-77 (Non-Cancerous)) of the same compound?
The value was 0.841.

What about the “combination Emax” value (8-MG-BA (Glioblastoma)) of the same compound?
Its value is 0.291.

What about the “combination Emax” value (IGR-37 (Melanoma)) of the same compound?
Its value is 0.186.

And the “combination Emax” value [4]?
The value was 0.0618.

And the “combination Emax” value [5]?
The value was 0.124.

What about the “combination Emax” value [6] of the same compound?
The value was 0.576.

And the “combination Emax” value (NY (Osteosarcoma))?
Its value is 0.0978.

And the “combination Emax” value [7]?
Its value is 0.408.

And the “combination Emax” value (A498 (Kidney Carcinoma))?
The value was 0.57.

What about the “combination Emax” value [8] of the same compound?
Its value is 0.367.

And the “combination Emax” value [9]?
The value was 0.337.

And the “combination Emax” value [10]?
The value was 0.354.

What about the “combination Emax” value [11] of the same compound?
The value was 0.221.

What about the “combination Emax” value (Hs-445 (Non-Cancerous)) of the same compound?
The value was 0.805.

What about the “combination Emax” value (CAS-1 (Glioblastoma)) of the same compound?
Its value is 0.327.

And the “combination Emax” value [12]?
The value was 0.265.

What about the “combination Emax” value [13] of the same compound?
Its value is 0.221.

For `CN(CCO)CC[C@H](CSc1ccccc1)Nc1ccc(S(=O)(=O)NC(=O)c2ccc(N3CCC([C@@H](O)c4ccccc4-c4ccc(Cl)cc4)CC3)cc2)cc1S(=O)(=O)C(F)(F)F` [AZD4320] + C=CCn1c(=O)c2cnc(Nc3ccc(N4CCN(C)CC4)cc3)nc2n1-c1cccc(C(C)(C)O)n1 [AZD1775] (first compound max 1 µM, partner max 1 µM), which “combination Emax” value [1] is on record?
Its value is 0.882.

What about the “combination Emax” value [2] of the same compound?
Its value is 1.

And the “combination Emax” value [3]?
The value was 0.717.

And the “combination Emax” value (ARH-77 (Non-Cancerous))?
Its value is 1.

What about the “combination Emax” value (8-MG-BA (Glioblastoma)) of the same compound?
Its value is 0.785.

What about the “combination Emax” value (IGR-37 (Melanoma)) of the same compound?
Its value is 0.762.

And the “combination Emax” value [4]?
The value was 0.549.

And the “combination Emax” value [5]?
Its value is 0.904.

And the “combination Emax” value [6]?
The value was 0.688.

And the “combination Emax” value (NY (Osteosarcoma))?
The value was 0.793.

What about the “combination Emax” value [7] of the same compound?
The value was 0.484.

What about the “combination Emax” value (A498 (Kidney Carcinoma)) of the same compound?
Its value is 0.628.

And the “combination Emax” value [8]?
Its value is 0.892.

And the “combination Emax” value [9]?
Its value is 0.337.

What about the “combination Emax” value [10] of the same compound?
Its value is 0.384.

What about the “combination Emax” value [11] of the same compound?
The value was 0.726.

And the “combination Emax” value (Hs-445 (Non-Cancerous))?
Its value is 1.

And the “combination Emax” value (CAS-1 (Glioblastoma))?
The value was 0.713.

And the “combination Emax” value [12]?
Its value is 0.481.

And the “combination Emax” value [13]?
The value was 0.942.

For `CN(CCO)CC[C@H](CSc1ccccc1)Nc1ccc(S(=O)(=O)NC(=O)c2ccc(N3CCC([C@@H](O)c4ccccc4-c4ccc(Cl)cc4)CC3)cc2)cc1S(=O)(=O)C(F)(F)F` [AZD4320] + CCN(CCO)CCCOc1ccc2c(Nc3cc(CC(=O)Nc4cccc(F)c4)[nH]n3)ncnc2c1 [AZD2811] (first compound max 1 µM, 7x7, partner max 1 µM), which “combination Emax” value [1] is on record?
Its value is 0.828.

And the “combination Emax” value [2]?
Its value is 1.

What about the “combination Emax” value [3] of the same compound?
The value was 0.194.

What about the “combination Emax” value (ARH-77 (Non-Cancerous)) of the same compound?
Its value is 0.95.

And the “combination Emax” value (8-MG-BA (Glioblastoma))?
The value was 0.21.

What about the “combination Emax” value (IGR-37 (Melanoma)) of the same compound?
Its value is 0.116.

What about the “combination Emax” value [4] of the same compound?
The value was 0.401.

What about the “combination Emax” value [5] of the same compound?
The value was 0.341.

What about the “combination Emax” value [6] of the same compound?
The value was 0.776.

And the “combination Emax” value (NY (Osteosarcoma))?
Its value is 0.121.

And the “combination Emax” value [7]?
Its value is 0.615.

And the “combination Emax” value (A498 (Kidney Carcinoma))?
The value was 0.218.

And the “combination Emax” value [8]?
The value was 0.371.

And the “combination Emax” value [9]?
Its value is 0.159.

What about the “combination Emax” value [10] of the same compound?
Its value is 0.446.

What about the “combination Emax” value [11] of the same compound?
Its value is 0.589.

What about the “combination Emax” value (Hs-445 (Non-Cancerous)) of the same compound?
Its value is 0.926.

What about the “combination Emax” value (CAS-1 (Glioblastoma)) of the same compound?
Its value is 0.417.

And the “combination Emax” value [12]?
Its value is 0.18.

What about the “combination Emax” value [13] of the same compound?
Its value is 0.545.
